# In patent US20260250318A1, “COMPOSITIONS AND METHODS FOR CROSSING THE BLOOD BRAIN BARRIER” (VOYAGER THERAPEUTICS, INC., priority 2022, published 2026):
# Test system: brain
# Experiment: Maturation of TTM-001 capsid, NGS enrichment in brain of CD-1 Outbred mice
# Format: in vivo
# Details: NGS fold-enrichment of TTM-001 matured AAV capsid variants in the brain of CD-1 Outbred mice; intravenous 1.0×10^12 VG/dose; 14 days in life; RNA; relative to non-matured TTM-001 control
# Method in brief: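 Brain enrichment read by NGS after RNA extraction and RT-PCR, expressed as fold ratio over the matching parental capsid (TTM-001 or TTM-002). Libraries, mutated around loop IV positions 449/450–466, were injected intravenously (tail vein, 1.0×10^12 VG/dose) into three female CD-1 mice; brains harvested at 14 days.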
row,Sequence,Fold enrichment over TTM-001
1,KTINGSGSPHSKAQNEVH,2.272 fold
2,KTINGSGSPHSKAQNKRS,2.214 fold
3,KTINGSGSPHSKAQNLRR,2.231 fold
4,KTINGSGSPHSKAQNRIR,2.039 fold
5,KTINGSGSPHSKAQNRKL,2.084 fold
6,KTINGSGSPHSKAQNRMR,2.804 fold
7,KTINGSGSPHSKAQNRRS,2.613 fold
8,KTINGSGSPHSKAQNSRR,3.168 fold
9,KTINGSGSPHSKAQNTRR,2.013 fold
10,KTINGSGSPHSKAQNVKL,2.024 fold
11,KTINGSGSPHSKAQNWRT,2.125 fold
12,KTINGSGSPHSKAQNYRA,2.039 fold
13,KTINGSGSPHSKAQPSKT,2.339 fold
14,KTINGSGSPHSKAQQSRT,2.337 fold
15,KTINGSGSPHSKAQRGMT,2.231 fold
16,KTINGSGSPHSKAQRHAT,2.264 fold
17,KTINGSGSPHSKAQRHVT,3.404 fold
18,KTINGSGSPHSKAQRKLT,4.339 fold
19,KTINGSGSPHSKAQRLRT,4.322 fold
20,KTINGSGSPHSKAQRLWT,2.611 fold
21,KTINGSGSPHSKAQRRLT,4.227 fold
22,KTINGSGSPHSKAQRRQT,2.479 fold

row,Sequence,Fold enrichment over TTM-001
1,KTINGSGSPHSKAQRRST,2.993 fold
2,KTINGSGSPHSKAQRSRT,3.585 fold
3,KTINGSGSPHSKAQRWLT,2.788 fold
4,KTINGSGSPHSKAQSHRT,2.084 fold
5,KTINGSGSPHSKAQSLKT,2.110 fold
6,KTINGSGSPHSKAQSRRT,3.372 fold
7,KTINGSGSPHSKAQSSKT,2.078 fold
8,KTINGSGSPHSKAQSSRT,2.575 fold
9,KTINGSGSPHSKAQSVKT,2.464 fold
10,KTINGSGSPHSKAQSWRT,2.596 fold
11,KTINGSGSPHSKAQSYRT,2.088 fold
12,KTINGSGSPHSKAQTART,2.363 fold
13,KTINGSGSPHSKAQTFRT,2.847 fold
14,KTINGSGSPHSKAQTGRT,2.371 fold
15,KTINGSGSPHSKAQTMRT,2.453 fold
16,KTINGSGSPHSKAQTNRT,2.510 fold
17,KTINGSGSPHSKAQTSRT,3.421 fold
18,KTINGSGSPHSKAQTTRT,2.385 fold
19,KTINGSGSPHSKAQVCLT,2.182 fold
20,KTINGSGSPHSKAQVKLT,2.564 fold
21,KTINGSGSPHSKAQVLIT,2.317 fold
22,KTINGSGSPHSKAQVSIT,2.028 fold

row,Sequence,Fold enrichment over TTM-001
1,KTINGSGSPHSKAQVSKT,3.406 fold
2,KTINGSGSPHSKAQVTLT,2.179 fold
3,KTINGSGSPHSKAQVVLT,2.438 fold
4,KTINGSGSPHSKAQVWFT,2.181 fold
5,KTINGSGSPHSKAQWLRT,2.795 fold
6,KTINGSGSPHSKAQWSVT,2.501 fold
7,KTINGSGSPHSKAQWVLT,2.052 fold
8,KTINGSGSPHSKAQYCLT,2.628 fold
9,KTINGSGSPHSKAQYRLT,2.088 fold
10,KTINGSGSPHSKAQYYVT,6.283 fold
11,KTINGSGSPHSKARANQT,2.300 fold
12,KTINGSGSPHSKARFSQT,2.253 fold
13,KTINGSGSPHSKARFTQT,2.233 fold
14,KTINGSGSPHSKARGIQT,2.140 fold
15,KTINGSGSPHSKARGQQT,2.039 fold
16,KTINGSGSPHSKARGTQT,2.505 fold
17,KTINGSGSPHSKARGVQT,2.181 fold
18,KTINGSGSPHSKARGYQT,2.492 fold
19,KTINGSGSPHSKARIMQT,2.283 fold
20,KTINGSGSPHSKARITQT,2.525 fold
21,KTINGSGSPHSKARIVQT,3.287 fold
22,KTINGSGSPHSKARKLQT,2.458 fold

row,Sequence,Fold enrichment over TTM-001
1,KTINGSGSPHSKARLAQT,2.007 fold
2,KTINGSGSPHSKARLQQT,2.089 fold
3,KTINGSGSPHSKARLRQT,4.155 fold
4,KTINGSGSPHSKARLTQT,2.223 fold
5,KTINGSGSPHSKARLWQT,2.914 fold
6,KTINGSGSPHSKARLYQT,2.201 fold
7,KTINGSGSPHSKARMAQT,2.488 fold
8,KTINGSGSPHSKARMGQT,2.564 fold
9,KTINGSGSPHSKARMQQT,2.184 fold
10,KTINGSGSPHSKARMTQT,2.091 fold
11,KTINGSGSPHSKARNGQT,2.482 fold
12,KTINGSGSPHSKARNKQT,2.108 fold
13,KTINGSGSPHSKARPFQT,2.443 fold
14,KTINGSGSPHSKARPYQT,3.050 fold
15,KTINGSGSPHSKARQQQT,2.244 fold
16,KTINGSGSPHSKARRLQT,4.210 fold
17,KTINGSGSPHSKARRQQT,4.218 fold
18,KTINGSGSPHSKARRSQT,3.493 fold
19,KTINGSGSPHSKARSKQT,2.758 fold
20,KTINGSGSPHSKARSRQT,2.972 fold
21,KTINGSGSPHSKARSYQT,2.382 fold
22,KTINGSGSPHSKARTRQT,2.737 fold

row,Sequence,Fold enrichment over TTM-001
1,KTINGSGSPHSKARYSQT,2.369 fold
2,KTINGSGSPHSKARYVQT,2.749 fold
3,KTINGSGSPHSKASCRQT,2.840 fold
4,KTINGSGSPHSKASKNQT,2.171 fold
5,KTINGSGSPHSKASKQQT,2.069 fold
6,KTINGSGSPHSKASKRQT,4.117 fold
7,KTINGSGSPHSKASRGQT,2.182 fold
8,KTINGSGSPHSKASRHQT,2.324 fold
9,KTINGSGSPHSKASRQQT,2.197 fold
10,KTINGSGSPHSKASRRQT,3.577 fold
11,KTINGSGSPHSKATRHQT,2.777 fold
12,KTINGSGSPHSKATRNQT,2.756 fold
13,KTINGSGSPHSKATRQQT,2.505 fold
14,KTINGSGSPHSKATRRQT,3.277 fold
15,KTINGSGSPHSKAVRAQT,2.538 fold
16,KTINGSGSPHSKAVRNQT,2.516 fold
17,KTINGSGSPHSKAVRQQT,2.052 fold
18,KTINGSGSPHSKAVWRQT,2.026 fold
